From patent publication US11162937B2, “Patient selection method for inflammation” (Purdue Research Foundation, priority 2013, dated 2021)

Columns and labels:
[1] = test system: mice with pulmonary fibrosis; test: Bleomycin-induced pulmonary fibrosis mice: ^99mTc-EC20 radioimaging, BAL cell count, lung hydroxyproline, H&E; assay type: in vivo
Protocol: Pulmonary fibrosis was induced in mice as previously described in B. B. Moore, C. M. Hogaboam, Murine models of pulmonary fibrosis. Am J Physiol Lung Cell Mol Physiol. 294, L152-160 (2008), incorporated herein by reference. Briefly, 6 week old female C57BL/6 mice (Harlan Laboratories) maintained on a folate-deficient diet were anaesthetized with isoflurane, and 50 μL of bleomycin (2 U/kg body weight) dissolved in saline was intratracheally instilled into each mouse. Healthy control mice were similarly intratracheally instilled with 50 μL saline. Mice were then separated into treatment groups (n=5). […] Diseased mice were injected every day intraperitoneally with dexamethasone (0.5 mg/kg) or etanercept (300 μg). Mice were imaged with ^99mTc-EC20 after 6 days of treatment and again after 15 days of treatment. Mice were then euthanized by CO2 asphyxiation and bronchoalveolar lavage fluid was collected and cells were counted using a Beckman Coulter Z™ Series COULTER COUNTER® Cell and Particle Counter. The left lung was fixed in formalin and submitted to the Purdue Histology & Phenotyping Laboratory for H&E staining and the right lung was used for analysis of hydroxyproline content using a hydroxyproline assay kit from Sigma-Aldrich (St. Louis, Mo.).
(§1) ^99mTc-EC20 was prepared as previously described in C.
Since pulmonary fibrosis is thought to be primarily driven by M2 macrophages, C57BL/6 mice were induced to develop an acute form of lung fibrosis by intratracheal instillation of bleomycin. Immediately following disease induction, mice were treated daily with intraperitoneal injections of dexamethasone, etanercept, or saline, and then imaged with ^99mTc-EC20 six days later.

CIA mice [2] = test: Collagen-induced arthritis (CIA) mice: ^99mTc-EC20 radioimaging, arthritis score and paw thickness under anti-inflammatory therapy; conditions: for disease symptoms (arthritis score, paw swelling) relative to disease control / uptake of ^99mTc-EC20 in the affected appendages relative to disease control: day 3 of therapy; for uptake of ^99mTc-EC20 in the affected appendages relative to disease control: 150 μCi ^99mTc-EC20 i.p., imaged after 4 h
Protocol: Collagen-induced arthritis (CIA) was initiated using established methods on 6-7 week old female DBA/1 mice (Jackson Laboratories) maintained on folate-deficient diet (Harlan-Teklad). Briefly, mice were immunized at the base of the tail with 100 μg bovine type II collagen emulsified in complete Freund's adjuvant (Chondrex, Inc., Redmond, Wash., USA). Mice were then boosted 21 days later with a similar injection of 100 μg bovine type II collagen emulsified in incomplete Freund's adjuvant. After four days, onset of arthritis was synchronized in all mice with an intraperitoneal injection of 25 μg lipopolysaccharide (LPS) dissolved in saline. Three days later mice were distributed equally across control and treatment groups (n=5). Healthy mice and disease control mice received daily intraperitoneal injections of 100 μL saline. […] Arthritis scores were assessed every other day by researchers blinded to the various treatment groups, using the following scoring system: 0=normal; 1=mild, but definite redness and swelling of the ankle or wrist, or apparent redness and swelling limited to individual digits, regardless of the number of affected digits; 2=moderate redness and swelling of ankle or wrist; 3=severe redness and swelling of the entire paw including digits; 4=maximally inflamed limb with involvement of multiple joints. A total score for each mouse was calculated by summing the scores for each of the four paws, allowing a maximum possible score of 16 per animal. Paw thickness was measured with calipers every other day starting on the first day of treatment. On day 3 of treatment, mice were anesthetized with isoflurane and imaged with ^99mTc-EC20 as described below. Mice were again imaged and then euthanized by CO2 asphyxiation on day 11 of treatment.
(§2) ^99mTc-EC20 was prepared as previously described in C. P. Leamon, M. A. Parker, I. R. Vlahov, L. Xu, J. A. Reddy, M. Vetzel, N. Douglas, Synthesis and Biological Evaluation of EC20: A New Folate-Derived, ^99mTc-Based Radiopharmaceutical. Bioconjugate Chem. 13, 1200-1210 (2002), incorporated herein by reference. A preparation method for ^99mTc-EC20 is also described in U.S. Pat. No. 7,128,893, incorporated herein by reference. Briefly, 1 mL of 15 mCi/mL sodium pertechnetate (Cardinal Health) was added to 0.1 mg of EC20 (a gift from Endocyte, Inc.) and heated at 100° C. for 18 min. After diluting with saline, 100 μL ^99mTc-EC20 (150 μCi (˜75 nmol of EC20 per kilogram for CIA, ulcerative colitis and pulmonary fibrosis mice) or 300 μCi (˜150 nmol of EC20 per kilogram for atherosclerosis)) was injected intraperitoneally into the desired mice, and unbound ^99mTc-EC20 was allowed to clear from tissues for 4 h. Mice were then either anesthetized with 3% isoflurane (CIA, atherosclerosis, and pulmonary fibrosis mice) or euthanized (ulcerative colitis mice) prior to image acquisition using a Kodak Image Station operated with Kodak molecular imaging software (version 4.5; Carestream Molecular Imaging). Radioimages were acquired for 2 minutes using a radioisotopic phosphor screen, no illumination source, 4×4 binning, focal plane=5, FOV=160, and f-stop=0. White light images were acquired for 0.175 seconds with white light transillumination source, no binning, focal plane=5, FOV=160, and f-stop=11.
Mice were induced to develop collagen-induced arthritis (CIA, a well-established model of rheumatoid arthritis) and subjected 28 days later to treatment with methotrexate, dexamethasone or saline (disease control). Three days after initiation of therapy, the mice were injected with 150 μCi of ^99mTc-EC20 and subjected to their first planned radioimage analysis.

[3] = test system: mice with ulcerative colitis; test: DSS-induced ulcerative colitis mice: ^99mTc-EC20 radioimaging of colon, clinical score and colon length under therapy; assay type: in vivo; conditions: for clinical scores compared to disease control mice / colon shortening compared to disease control mice: after 8 days of continuous therapy; for clinical scores or colon lengths relative to saline-treated mice / ^99mTc-EC20 uptake in colon relative to saline-treated mice: day 4 of therapy; for ^99mTc-EC20 uptake in colon relative to saline-treated mice: 150 μCi ^99mTc-EC20; for ^99mTc-EC20 radioimages compared with the earlier time point (day 4): day 8 of therapy
Protocol: Ulcerative colitis was induced as previously described in S. Wirtz, C. […] Nat Protoc. 2, 541-546 (2007), incorporated herein by reference. Seven week old Balb/c mice (Harlan Laboratories) maintained on a folate-deficient diet were administered 5% dextran sodium sulfate (DSS) in their drinking water. Mice were divided into treatment groups (n=10 per group). Healthy mice and disease control mice received 100 μL saline daily by oral gavage. Diseased mice were treated daily with cimetidine (100 mg/kg) or sulphasalazine (150 mg/kg) by oral gavage. Healthy mice were maintained on normal water and similarly treated with saline. Disease symptoms were assessed daily and quantitated by adding the scores from each of the following tests: Weight loss: 0=no weight loss, 1=1-5% weight loss, 2=6-10% weight loss, 3=11-15% weight loss, 4=>15% weight loss; Stool appearance: 0=normal, 1=loose feces, 2=diarrhea; Hematochezia (blood in stool): 0=no blood, 1=positive via guaiac paper, 2=visually bloody; Overall appearance: 0=normal, 1=ruffled fur/altered gait, 2=lethargic, moribund. On day 4 of therapy, half of each treatment group (n=5) received an intraperitoneal injection of ^99mTc-EC20. After 4 hours, the injected mice were euthanized and the bladder and kidneys were removed to reduce background radiation associated with ^99mTc-EC20 undergoing excretion. Mice were then imaged to assess uptake of ^99mTc-EC20 in the colon, and the colons were removed and measured with calipers to evaluate colon shortening as a measure of disease severity. On day 8, the remaining mice were injected with ^99mTc-EC20 and analyzed similarly.
as §2
Mice (n=10/group) were administered 5% dextran sulfate sodium (DSS) in water to induce ulcerative colitis and then treated daily with cimetidine, sulphasalazine or saline (disease control). Then on day 4, half of the mice (n=5/group) were injected with 150 μCi ^99mTc-EC20 and euthanized in preparation for subsequent imaging of their colons.

macrophage accumulation = test: Flow cytometric analysis (F480-PE) of macrophage accumulation in large intestine of ulcerative colitis mice; assay type: in vivo; conditions: after 4 days of treatment, F480-PE flow cytometry
Protocol: Ulcerative colitis was induced as described. Seven week old Balb/c mice (Harlan Laboratories) maintained on a folate-deficient diet were administered 5% dextran sodium sulfate (DSS) in their drinking water. Healthy control mice were maintained on normal water. Mice were divided into treatment groups (n=3 per group). Healthy mice and disease control mice received 100 μL saline daily by oral gavage. Diseased mice were treated daily with cimetidine (100 mg/kg) or sulphasalazine (150 mg/kg) by oral gavage. After 4 days of treatment, mice were euthanized and large intestines were removed. Equal weights of the large intestines were digested and made into single cell suspensions. Cells were included with mouse macrophage marker F480-PE and analyzed by flow cytometry.

CIA mice [4] = conditions: prior finding; cited from earlier work
ApoE−/− mice [5] = conditions: prior finding; cited from earlier work
ApoE−/− mice [6] = test: Atherosclerosis in ApoE−/− mice on high fat diet: ^99mTc-EC20 radioimaging and aortic histology under therapy; assay type: in vivo
Protocol: Five week old male ApoE−/− mice were purchased from Jackson Laboratories and placed on an adjusted calorie diet (42% from fat, Harlan Laboratories). Healthy control mice (C57BL/6) were similarly maintained on normal chow. Mice were divided into therapy groups (n=5). Healthy mice and disease control mice received 100 μL saline daily by oral gavage. Diseased mice were treated daily with valsartan (1 mg/kg), or fluvastatin (3 mg/kg) by oral gavage. After three weeks of treatment, mice were imaged with 300 μCi ^99mTc-EC20. Mice were again imaged with ^99mTc-EC20 after 12 weeks of therapy and then euthanized by CO2 asphyxiation. Aortas were dissected and H&E and oil red O staining was performed.
as §1
The ability to predict response to therapy might be most useful when applied to treatment of inflammatory/autoimmune diseases that are either intrinsically difficult to monitor or slow to respond to therapeutic intervention. Because atherosclerosis suffers from both disadvantages due to its inaccessible location and slow rate of progression, ^99mTc-EC20 was analyzed to determine if it might be effective in predicting response to therapy in a common murine model of heart disease. […] After 3 weeks of daily treatment, when no morphological symptoms of heart disease could be detected, mice were anesthetized and imaged with ^99mTc-EC20.

Compound: etanercept
- fibrosis by H&E analysis of the lungs ([1]; day 15 of treatment): reduced fibrosis
- hydroxyproline contents in resected lung tissues compared to saline-treated controls ([1]; day 15 of treatment): reduced hydroxyproline contents
- total cell counts in bronchoalveolar lavage fluids compared to saline-treated controls ([1]; day 15 of treatment): decreased total cell counts
- accumulation of ^99mTc-EC20 compared to saline-treated disease controls ([1]; six days of treatment): decreased accumulation
- disease symptoms (arthritis score, paw swelling) relative to disease control (CIA mice [2]; CIA mice): no significant difference
- uptake of ^99mTc-EC20 in the affected appendages relative to disease control (CIA mice [2]; CIA mice): significantly less uptake
- disease symptoms / joint inflammation (arthritis score, paw thickness) relative to disease control (CIA mice [2]; CIA mice, day 11 of therapy): significantly reduced inflammation

Compound: CN(Cc1cnc2nc(N)nc(N)c2n1)c1ccc(C(=O)N[C@@H](CCC(=O)O)C(=O)O)cc1 [methotrexate]
- disease symptoms (arthritis score, paw swelling) relative to disease control (CIA mice [2]; CIA mice): no reduction
- uptake of ^99mTc-EC20 in the affected appendages relative to disease control (CIA mice [2]; CIA mice): markedly less
- disease symptoms / joint inflammation (arthritis score, paw thickness) relative to disease control (CIA mice [2]; CIA mice, day 11 of therapy): substantially resolved
- uptake of ^99mTc-EC20 (radioimages) (CIA mice [2]; CIA mice, day 11 of therapy): significantly reduced uptake

Compound: Nc1nc2ncc(CNc3ccc(C(=O)N[C@H](CCC(=O)NC[C@@H]4[NH][99Tc]56(=[O])[S]C[C@@H](C(=O)O)[N]5C(=O)[C@H](CC(=O)O)[N]6C4=O)C(=O)O)cc3)nc2c(=O)[nH]1 [^99mTc-EC20]
- accumulation of ^99mTc-EC20 in inflamed appendages (CIA mice [2]; CIA mice not treated with any anti-inflammatory drug, 150 μCi i.p.): exhibited the accumulation of ^99mTc-EC20 in their inflamed appendages

Compound: CN/C(=N/CCSCc1nc[nH]c1C)NC#N [cimetidine]
- clinical scores compared to disease control mice [3]: significantly lower
- colon shortening compared to disease control mice [3]: reduced colon shortening
- clinical scores or colon lengths relative to saline-treated mice [3]: no significant difference
- ^99mTc-EC20 uptake in colon relative to saline-treated mice [3]: significantly less
- ^99mTc-EC20 radioimages compared with the earlier time point (day 4) [3]: essentially unchanged
- macrophage accumulation in large intestine compared to the disease control group (macrophage accumulation): reduced macrophage accumulation

Compound: COc1ccc2cc([C@H](C)C(=O)O)ccc2c1 [naproxen]
- efficacy in the CIA model of arthritis in mice (previously found) (CIA mice [4]): little efficacy

Compound: CCCCC(=O)N(Cc1ccc(-c2ccccc2-c2nnn[nH]2)cc1)[C@H](C(=O)O)C(C)C [valsartan]
- plaque formation in murine models of atherosclerosis (have been shown) (ApoE−/− mice [5]): reduce plaque formation
- ^99mTc-EC20 uptake in chest cavities relative to saline-treated mice (ApoE−/− mice [6]; after 3 weeks of daily treatment): significantly less
- aortic wall thickening relative to saline-treated mice (ApoE−/− mice [6]; after 12 weeks of daily therapy, H&E): significantly reduced

Compound: O=C(O)c1cc(/N=N/c2ccc(S(=O)(=O)Nc3ccccn3)cc2)ccc1O [sulphasalazine]
- clinical scores compared to disease control mice [3]: significantly lower
- colon shortening compared to disease control mice [3]: reduced colon shortening
- clinical scores or colon lengths relative to saline-treated mice [3]: no significant difference
- ^99mTc-EC20 uptake in colon relative to saline-treated mice [3]: significantly less
- ^99mTc-EC20 radioimages compared with the earlier time point (day 4) [3]: essentially unchanged
- macrophage accumulation in large intestine compared to the disease control group (macrophage accumulation): reduced macrophage accumulation
